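Compound exposure: 48 hours, 5 concentrations, 96-well plates. At the GI50, growth is halved. TGI is the concentration that stops growth completely.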
What was measured:
Test in all cases: NCI tumour cell line growth inhibition, 48 h
[1] = system: PC-3 prostate
[2] = system: NCI-H522 lung
[3] = system: SF-268 CNS
[4] = system: OVCAR-5 ovarian
[5] = system: SF-295 CNS
[6] = system: COLO 205 colon

SMILES	TGI [1]	TGI [2]	TGI [3]	TGI [4]	TGI [5]	TGI [6]	GI50 [2]	GI50 [3]
COC(=O)c1cc(NC(=O)Cc2c[nH]c3ccccc23)cn1C	> 100 µM	> 100 µM	> 100 µM	> 100 µM	> 100 µM	> 100 µM		
O=C(/C=C/c1ccccc1)Nc1ccccc1SCCCCl	> 100 µM	24.3 µM	> 100 µM	> 100 µM	49.4 µM	48.5 µM		
COc1ccccc1C(O)[C@@H]1C[C@@H]2[C@H]3CC[C@@](C)([C@@H]2O1)C3(C)C (stereo partly specified)	45.2 µM	38.5 µM	58 µM	38.6 µM	34.6 µM	35.2 µM		
O=C1/C(=C/c2ccccc2[N+](=O)[O-])N=C(c2ccccc2)N1c1nc2ccccc2s1	> 100 µM	40.1 µM	60.4 µM	> 100 µM	> 100 µM			
CSc1nc2c(c(=O)n1C)N=C(c1ccc([N+](=O)[O-])cc1)CC(c1ccccc1)N2 (stereo unspecified)	> 100 µM	> 100 µM		> 100 µM	> 100 µM	> 100 µM		
O=[N+]([O-])c1ccc(-n2nc3ccc4c(no[n+]4[O-])c3n2)cc1	> 100 µM	> 100 µM	> 100 µM	> 100 µM	> 100 µM	> 100 µM		
Cc1ccc(C)n2c1nc1ccccc12	> 100 µM		> 100 µM	> 100 µM	> 100 µM	> 100 µM		
COC1CC(OC2C(C)OC(OC3C(C)OC(OC4C(C)OC(O[C@H]5CC[C@@]6(C)C(=CC[C@]7(O)[C@@H]6C[C@@H](OC(C)=O)[C@@]6(C)[C@]7(O)CC[C@@]6(O)C(C)=O)C5)CC4OC)CC3OC)CC2OC)OC(C)C1O (stereo partly specified)	> 25 µM	> 25 µM	> 25 µM	> 25 µM	> 25 µM	> 25 µM		
CSc1ccc(Nc2cc(=O)[nH]c(=O)[nH]2)cc1	> 100 µM	> 100 µM	> 100 µM	> 100 µM	> 100 µM	> 100 µM		
CCOC(=O)/C=C(/C(=O)OCC)n1ccc(=O)n(Cc2cnnn2COCCOC(C)=O)c1=O	34.2 µM	4.65 µM	44.4 µM	35.9 µM	> 100 µM	9.73 µM		
CCOC(=O)c1nc2cc(C(F)(F)F)ccc2nc1Nc1ccc(C(=O)OC)s1	> 100 µM	90.3 µM	> 100 µM	> 100 µM	> 100 µM	44.5 µM		
O=C1O[C@H]2[C@H](OC(=O)c3cc(O)c(O)c(O)c3)[C@@H](OC(=O)c3cc(O)c(O)c4c3[C@@H]3C1=CC(=O)C(O)(O)C3(O)O4)[C@H](OC(=O)c1cc(O)c(O)c(O)c1)O[C@@H]2COC(=O)c1cc(O)c(O)c(O)c1 (stereo partly specified)	> 100 µM	> 100 µM	> 100 µM	> 100 µM	> 100 µM	> 100 µM		
CC(C)CC(N)C(=O)Nc1ccc2ccccc2c1 (stereo unspecified)	> 100 µM	> 100 µM	> 100 µM	> 100 µM	> 100 µM	> 100 µM		
COC(=O)/C=C1/OC(c2ccccc2)=C(C)C1=O		57.5 µM	35.5 µM	30.6 µM	26.1 µM	31.3 µM		
CC(=O)OCC(=O)OC[C@H](OCc1ccccc1)[C@@H]1[C@H](OC(C)=O)C(=O)N1Cc1ccccc1	> 100 µM		> 100 µM	> 100 µM	> 100 µM	> 100 µM		
Cc1cc2nc3ccccc3n2c2nc(N)ccc12	> 100 µM	> 100 µM	> 100 µM	> 100 µM	71.5 µM	> 100 µM		
CCc1ccc(COC(=O)C2=C(C)NC(C)=C(C(=O)OCc3ccc(CC)cn3)C2C2=COCCO2)nc1	43.1 µM	40.7 µM	> 100 µM	69.3 µM	61.3 µM	29.6 µM		
C=C(C(=O)OC)[C@@H]1C[C@@H](OC(C)=O)C2=C[C@H](C[C@@]3(C)O[C@@H]3C3=CC(C)=C(O3)[C@H]1OC(C)=O)OC2=O	> 100 µM	5.83 µM	> 100 µM	36.6 µM	88.5 µM	25.8 µM		
CCN(CC)CCN(C)c1ccc(CO)c2c1C(=O)c1ccccc1S2=O (stereo unspecified)	46 µM	4.23 µM	35.9 µM	24.5 µM	28 µM	21.6 µM		
COc1cccc(C2SC(N)=Nc3c2c(C)nn3C(=O)Cc2ccccc2)c1 (stereo unspecified)	> 100 µM	> 100 µM	> 100 µM		> 100 µM	> 100 µM		

SMILES	TGI [1]	TGI [2]	TGI [3]	TGI [4]	TGI [5]	TGI [6]	GI50 [2]	GI50 [3]
CC1=C(O)c2ccccc2C(=O)C1=O	> 100 µM	> 100 µM	> 100 µM	> 100 µM	> 100 µM	> 100 µM		
O=C(CSCC(=O)N/N=C\c1cccc([N+](=O)[O-])c1)N/N=C\c1cccc([N+](=O)[O-])c1		> 100 µM	> 100 µM		30.5 µM	> 100 µM		
COc1ccc(N=NC(=O)NC(CC(C)C)C(=O)NCC(=O)O)cc1 (stereo unspecified)	> 100 µM	> 100 µM	> 100 µM	> 100 µM	> 100 µM	24.5 µM		
O=[S@]1c2ccc3ccccc3c2N[C@@H]2[C@H]1[C@H]1C=C[C@@H]2C1	> 100 µM	55.4 µM	> 100 µM	> 100 µM	> 100 µM	> 100 µM		
OC(CN(CCCl)CCCl)C(O)C(O)C(O)CN(CCCl)CCCl (stereo unspecified)	> 100 µM	> 100 µM	> 100 µM	> 100 µM		> 100 µM		
O=C1CCc2ccc(O)c(c2)Oc2ccc(cc2)C(Sc2ccccc2)CCO1 (stereo unspecified)	35.1 µM	27.7 µM	42.4 µM	35.3 µM	38.2 µM	33.1 µM		
COc1ccccc1/C=C/C1=NN(c2cccc(S(=O)(=O)O)c2)C2(C1)C(Cl)C(=O)N2c1nc2ccccc2s1 (stereo unspecified)	> 100 µM	> 58.8 µM	> 100 µM	> 100 µM	> 100 µM	> 100 µM		
COc1cc2c(c(OC)c1OC)-c1ccc(SC)c(=O)cc1[C@@H](O)CC2							0.0116 µM	0.0153 µM
CCCSc1ccc2[nH]c(N3C(=O)/C(=C/c4ccc(SC)cc4)N=C3c3ccccc3)cc2c1	> 50 µM	> 50 µM	> 50 µM	> 50 µM	> 50 µM	> 43.2 µM		
CC(Nc1ccc(Cl)c(Cl)c1)c1ccncc1 (stereo unspecified)	75.2 µM	37 µM	> 100 µM		64.2 µM	31.4 µM		
Cc1ccc2nc(C(C)C)c(=O)[nH]c2c1	34.1 µM	> 100 µM	> 100 µM	> 100 µM	> 100 µM	> 100 µM		
C=CCOC(=O)C1=C(C)NC2=N[C@H](CCCCCCCCC)C[C@@H]3CCC1N23 (stereo partly specified)	42.1 µM	34.7 µM	39.9 µM	48.2 µM	> 100 µM	50.9 µM		
C=C1C(=O)O[C@H]2C1C[C@@H](OC(C)=O)/C(C)=C/CC[C@@]1(C)O[C@H]21 (stereo partly specified)	31.3 µM	10.2 µM		31.5 µM	50.9 µM	14.2 µM		
CCCCCc1c(CCCC)c(=O)[nH]c2nc(NC(=O)CCCC)ccc12	> 100 µM	> 100 µM	> 100 µM	> 100 µM	> 100 µM	> 100 µM		
CC(C)=CCC[C@@H](C)C1=C(O)C(Nc2ccccc2Cl)=C(C)C(=O)C1=O	> 64.2 µM	22.7 µM	> 75 µM	> 75 µM	34.2 µM	21.7 µM		
O=Cc1cc(C(=O)OCc2ccccc2)n(S(=O)(=O)c2ccccc2)c1	53.6 µM	> 100 µM	65.5 µM	37.6 µM	29 µM	55.1 µM		
COc1c(C(=O)NCCN(CCNC(=O)c2cccc(-c3cccc(C(=O)N(C)C)c3OC)c2OC)CCNC(=O)c2cccc(-c3cccc(C(=O)N(C)C)c3OC)c2OC)cccc1-c1cccc(C(=O)N(C)C)c1OC	> 100 µM	43.5 µM	47.2 µM	> 100 µM	> 100 µM	48.6 µM		
CCCCc1ccc(Nc2nc(OC)c3ncn(C4CC(O)C(CO)O4)c3n2)cc1 (stereo unspecified)	37.5 µM	3.83 µM	34.5 µM	> 100 µM	36.5 µM	28.4 µM		
CCCc1cc(COC)c(C#N)c(=O)[nH]1	> 100 µM	> 100 µM	> 100 µM	> 100 µM	> 100 µM	> 100 µM		
CCOP(=O)(OCC)C(NC(=O)C(C(F)(F)F)C(F)(F)F)c1ccccc1 (stereo unspecified)	> 100 µM		> 100 µM	> 100 µM	> 100 µM	> 100 µM		

SMILES	TGI [1]	TGI [2]	TGI [3]	TGI [4]	TGI [5]	TGI [6]	GI50 [2]	GI50 [3]
Cc1ccc2c(=O)cc(-c3ccc(C)s3)[nH]c2n1	> 44.9 µM		> 74 µM	> 100 µM	2.79 µM	2.29 µM		
CC(=O)O[C@H]1C(=O)[C@@]2(C)[C@H]([C@H](OC(=O)c3ccccc3)[C@]3(O)C[C@H](OC(=O)[C@H](O)[C@@H](NC(=O)c4ccco4)c4ccccc4)C(C)=C1C3(C)C)[C@]1(OC(C)=O)CO[C@@H]1C[C@@H]2O	> 12.5 µM	> 12.5 µM	> 12.5 µM	> 12.5 µM	> 12.5 µM			
Nc1nc(NCCCO)cc(=O)[nH]1	> 100 µM	> 100 µM	> 100 µM	> 100 µM	> 100 µM	> 100 µM		
[B-][P+](CC[P+]1([B-])[C@@H](C)[C@@H](O)[C@H](O)[C@@H]1C)(c1ccccc1)c1ccccc1OC (stereo partly specified)	35.6 µM	26.2 µM	32.8 µM	32 µM	29.4 µM	32.6 µM		
COc1ccc(OC)c2c1C=CC(Br)=CC2	> 1 µM	0.579 µM	> 1 µM		0.373 µM	> 1 µM		
O=C(NNC(=S)NC1CCCCC1)C12CC3CC(CC(C3)C1)C2	> 100 µM	> 100 µM	> 100 µM	> 100 µM	> 100 µM	> 100 µM		
CN(C)N1C(=O)S/C(=C\c2ccc([N+](=O)[O-])cc2)C1=O	> 100 µM	> 100 µM	> 100 µM	> 100 µM	> 100 µM	> 100 µM		
COc1ccc2c(c1)CCCN1CCc3ccccc3C21 (stereo unspecified)	> 100 µM	> 100 µM	> 100 µM	> 100 µM	79.1 µM	59.3 µM		
N[C@@H]1CCN(c2c(F)cc3c(=O)c(C(=O)O)cn4c3c2Oc2cc3c(ccc5ccccc53)cc2-4)C1	> 28.2 µM	31.6 µM		97 µM	> 100 µM	> 100 µM		
COc1cccc(/C=C2\S/C(=N/Nc3nc(C)c(C)s3)NC2=O)c1O			> 100 µM	> 100 µM	> 100 µM	> 100 µM		
CCC1(c2ccc(N3C(=O)c4cc(OC)c(OC)cc4C3=O)cc2)CCC(=O)NC1=O (stereo unspecified)	> 10 µM		> 10 µM	> 10 µM	> 10 µM	> 10 µM		
CC(C)(Cl)C(Br)CCC(Br)(CCl)C(Cl)CBr (stereo unspecified)	> 10 µM	> 10 µM		> 10 µM	> 10 µM	> 10 µM		
CC(=O)NCC1OC2COC(c3ccccc3)OC2C(NC(=O)c2ccccc2)C1OC(=O)c1ccccc1 (stereo unspecified)	> 100 µM		> 100 µM	> 100 µM	> 100 µM	> 100 µM		
O=C1NN(Cc2ccccc2)C(=O)N2CCC[C@@H]12	> 100 µM		> 100 µM	> 100 µM	> 100 µM	> 100 µM		
COc1ccc(-c2c3c(n(C4OC(CO)C(O)C(O)C4O)c(=S)c2C#N)CCCC3)cc1 (stereo unspecified)	> 100 µM			> 100 µM	> 100 µM	> 100 µM		
CN(CCCNC(=O)c1cn(C)c2c1Cc1ccccc1-2)CCCNC(=O)c1cn(C)c2c1Cc1ccccc1-2	22.7 µM		21.3 µM	29.9 µM	26.2 µM	4.05 µM		
CCOC(=O)c1c(NC(=S)Nc2ccc(Cl)cc2)sc2c1CCN(C)C2	> 100 µM		> 100 µM	> 100 µM	> 100 µM	> 100 µM		
CN(C)c1c(C2OC(CO)C(O)C2O)c(=O)c1=O (stereo unspecified)	> 100 µM	> 100 µM	> 100 µM	> 100 µM	> 55.4 µM			
Fc1ccc2c3c([nH]c2c1)CCN(Cc1ccccc1)C3			49.2 µM	47.9 µM	27.9 µM	39.4 µM		

Source: PubChem BioAssay (NCI)
